Reference: US5760036A, “Aminediol protease inhibitors” (E. R. Squibb & Sons, Inc., priority 1995, dated 1998)
Structures can show the parent of a compound that is named as a salt. Where two headings read alike, the source gives them in different places.

Columns and labels:
HIV protease = target: T1, HIV protease (Human immunodeficiency virus type 1 group M subtype B, UniProt P04585); test: HIV Protease Assay; format: biochemical
T1 construct: and purified protease
Summary of the method: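 Purified protease cleaved 450 μM octapeptide substrate in 50 mM sodium acetate pH 5.5 with 100 μg/ml BSA for 30 minutes at 37° C; product analyzed by reverse-phase HPLC at UV220 after H3PO4 quench. Inhibitors tested at final 10 μM with 4% DMSO.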

[1] = tested on: RF strain of HIV (CEM-SS cells); test: Cell Culture Anti-HIV Activity (cell viability, formazan); format: cell-based; conditions: Human immunodeficiency virus 1, CEM-SS, 144 h, CEM-SS cells, RF strain of HIV, multiplicity of infection 0.04, 6 days at 37° C., 450 nm; read-out: HIV (CEM Cells) IC50
Summary of the method: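 CEM-SS cells (5000/well) infected with HIV RF at MOI 0.04, exposed to half-log serial compound dilutions, incubated 6 days at 37° C. Viability read by tetrazolium reduction to formazan, absorbance 450 nm. IC50 is the concentration raising formazan in infected cells to 50% of uninfected, drug-free cells.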

[2] = pH 5.5, 10 μM inhibitor, 4% DMSO, 450 μM substrate, pH 5.5, 30 minutes at 37° C., RP-HPLC, read-out: HIV Protease % Inhibition at 10 μM

Structure (SMILES) | inhibition at 10 µM (HIV protease; pH 5.5, read-out: HIV Protease % Inhibition at 10 μM) [%] | IC50 [1] [nM] | inhibition at 10 µM (HIV protease; [2]) [%] | HIV Protease % Inhibition at 10 μM (HIV protease; 10 μM inhibitor, 4% DMSO, 450 μM substrate, pH 5.5, 30 minutes at 37° C., RP-HPLC) [%]
CC(C)(C)OC(=O)N[C@@H](Cc1ccccc1)[C@H](O)CNC[C@@H](O)[C@H](Cc1ccc(OCC(=O)N2CCCCC2)cc1)NC(=O)OC(C)(C)C [Compound 332] | 100 | 70 | – | –
CC(C)(C)OC(=O)N[C@@H](Cc1ccccc1)[C@H](O)CNC[C@@H](O)[C@H](Cc1ccc(O)cc1)NC(=O)OC(C)(C)C [Compound 21, [1S-[1R*,2S*(2S*,3R*)]]-3-[[3-[[(1,1-Dimethylethoxy)carbonyl]amino]-2-hydroxy-4-(4-hydroxyphenyl)butyl]amino]-2-hydroxy-1-(phenylmethyl)propyl]carbamic acid, 1,1-dimethylethyl ester] | – | 90 | 99 | –
CN(CC(=O)[C@H](Cc1ccccc1)NC(=O)OC(C)(C)C)C[C@H](O)[C@H](Cc1ccccc1)NC(=O)OC(C)(C)C [Compound 199, [1S-[1R*(2R*,3R*)]]-3-[[3[[-(1,1-Dimethylethoxy)carbonyl]-amino]-2-hydroxy-4-phenylbutyl]-methylamino]-2-oxo-1-(phenylmethyl)-propyl]carbamic acid, 1,1-dimethylethyl ester] | – | > 17000 | 3 | –
CC(C)(C)OC(=O)N[C@@H](C/C=C/c1ccc(O)cc1)[C@H](O)CNC[C@@H](O)[C@H](Cc1ccccc1)NC(=O)OC(C)(C)C [Compound 235, [1S-[1R*,2S*[2S*,3R*(E)]]]-[3-[[3-[[(1,1-Dimethylethoxy)carbonyl]amino]-2-hydroxy-6-(4-hydroxyphenyl)-5-hexenyl]amino]-2-hydroxy-1-(phenylmethyl)propyl]carbamic acid, 1,1-dimethylethyl ester] | – | 350 | 97 | –
CC(C)(C)[C@@](C)(O)C(=O)N[C@@H](Cc1ccccc1)[C@H](O)CNC[C@@H](O)[C@H](Cc1ccccc1)NC(=O)[C@](C)(O)C(C)(C)C [Compound 344, [2R-[R*(R*,S*)]]-N,N'-[Iminobis[2-hydroxy-l-(phenylmethyl)-3,1-propanediyl]]bis[2-hydroxy-2,3,3-trimethylbutaneamide]] | – | 30 | 99 | –
CC(C)(C)OC(=O)N[C@@H](Cc1ccccc1)[C@H](O)CNC[C@@H](O)[C@H](Cc1ccccc1)NC(=O)C1(O)CCOC1 (stereo partly drawn) [Compound 330, [1S-[1R*,2S*(2S*,3R*)]]-[2-hydroxy-3-[[2-hydroxy-3-[[(tetrahydro-3-hydroxy-3-furanyl)carbonyl]amino]-4-phenylbutyl]amino]-1-(phenylmethyl)propyl]carbamic acid, 1,1-dimethylethyl ester] | – | 850 | 92 | –
CC(C)[C@H](NC(=O)[C@H](Cc1ccccc1)NC(=O)OCc1ccccc1)C(=O)N[C@@H](Cc1ccccc1)[C@H](O)CNC[C@@H](O)[C@H](Cc1ccccc1)NC(=O)OC(C)(C)C [Compound 62, [1S-[1R*,2S*(2S*,3R*)]-N-[3-[[3-[[(1,1-Dimethylethoxy)carbonyl]amino]-2-hydroxy-4-phenylbutyl]amino]-2-hydroxy-1-(phenyl-methyl)propyl]-N^2-[(phenylmethoxy)carbonyl]-L-phenylalanyl]-L-valinamide] | – | 50 | 98 | –
CN(C)C(=O)N[C@H](C(=O)N[C@@H](Cc1ccccc1)[C@H](O)CNC[C@@H](O)[C@H](Cc1ccccc1)NC(=O)OC(C)(C)C)C(C)(C)C (relative stereo) [Compound 305, [1R*,2S* (2S*,3R*)]-N-[3-[[3-[[(1,1Dimethylethoxy)carbonyl]amino]-2-hydroxy-4-phenylbutyl]amino]-2-hydroxy-1-(phenylmethyl)propyl]-N^2-[(dimethylamino)carbonyl)-3-methyl-L-valinamide] | – | 200 | 100 | –
C[C@H](NC(=O)OCc1nc2ccccc2[nH]1)C(=O)N[C@@H](Cc1ccccc1)[C@H](O)CNC[C@@H](O)[C@H](Cc1ccccc1)NC(=O)OC(C)(C)C (relative stereo) [Compound 220, [1R*,2S*(2S*,3R*)]-N^2-[[(2-Benzimidazolyl)methoxy]carbonyl]-N-[3-[[3-[[(1,1-dimethylethoxy)carbonyl]amino]-2-hydroxy-4-phenylbutyl]amino]-2-hydroxy-1-(phenylmethyl)propyl]-L-alaninamide] | – | 770 | 100 | –
CC(C)(C)OC(=O)N[C@@H](Cc1ccccc1)[C@H](O)CNC[C@@H](O)[C@H](Cc1ccccc1)NC(=O)OC(C)(C)Cc1ccccc1 [Compound 154, [R-(R*,S*)]-Iminobis[2-hydroxy-1-(phenylmethyl)-3,1-propanediyl)]biscarbamic acid, 1,1-dimethylethyl 1,1-dimethyl-2-phenylethyl ester] | – | > 1200 | 96 | –
CC(C)(C)OC(=O)N[C@@H](Cc1ccccc1)[C@H](O)CNC[C@@H](O)[C@H](Cc1ccccc1)NC(=O)OC(C)(C)CCCNC(=O)OCc1ccccc1 [Compound 150, [1S-(1R*,2S*)]-[Iminobis[2-hydroxy-1-(phenylmethyl)-3,1-propanediyl)]biscarbamic acid, 1,1-dimethylethyl 1,1-dimethyl-4-[[(phenylmethoxy)carbonyl]amino]butyl ester] | – | > 4000 | 93 | –
CC(C)(C)OC(=O)N[C@@H](Cc1ccccc1)[C@H](O)CNC[C@@H](O)[C@H](Cc1ccc(OCc2ccccc2)cc1)NC(=O)OC(C)(C)C [Compound 179, [1S-[1R*,2S*(2S*,3R*)]]-[3-[[3-[[(1,1-Dimethylethoxy)carbonyl]amino]-2-hydroxy-4-phenylbutyl]amino]-2-hydroxy-1-[[4-(phenylmethoxy)-phenyl]methyl]propyl]carbamic acid, 1,1-dimethylethyl ester] | – | 170 | 99 | –
CC(C)[C@H](NC(=O)CC(N)c1ccccc1)C(=O)N[C@@H](Cc1ccccc1)[C@H](O)CNC[C@@H](O)[C@H](Cc1ccccc1)NC(=O)OC(C)(C)C (stereo partly drawn) [Compound 86, [S-[1R*,2S*(2S*,3R*)]-N^2 (3-Amino-1-oxo-3-phenylpropyl)-N-[3-[[3-[[(1,1-dimethylethoxy)carbonyl]amino]-2-hydroxy-4-phenylbutyl]amino-[-2-hydroxy-1-(-phenylmethyl)propyl]-L-valinamide, fumarate (2:3) salt] | – | 1800 | 78 | –
CC(C)[C@H](NC(=O)[C@H](O)Cc1ccccc1)C(=O)N[C@@H](Cc1ccccc1)[C@H](O)CNC[C@@H](O)[C@H](Cc1ccccc1)NC(=O)OC(C)(C)C [Compound 78, [S-[1R*,2S*[2S*,3R*,N1S*]-N-[3-[[3-[[(1,1-Dimethylethoxy)carbonyl]amino]-2-hydroxy-4-phenylbutyl]amino]-2-hydroxy-1-(phenylmethyl)[propyl]-N^2-(2-hydroxy-1-oxo-3-phenyl-propyl)-L-valinamide] | – | 160 | 99 | –
CC(C)[C@H](NC(=O)OCc1nc2ccccc2o1)C(=O)N[C@@H](Cc1ccc(O)cc1)[C@H](O)CNC[C@@H](O)[C@H](Cc1ccccc1)NC(=O)OC(C)(C)C (relative stereo) [Compound 288, [1R*,2S*(2S*,3R*)]-N^2-[[(2-Benzoxazolyl)methoxy]carbonyl]-N-[3-[[3-[[(1.1-dimethylethoxy)carbonyl]amino]-2-hydroxy-4-phenylbutyl]amino]-2-hydroxy-1-[(4-hydroxyphenyl)methyl]propyl]-L-valinamide] | – | 470 | 100 | –
CC(C)(C)OC(=O)N[C@@H](Cc1ccccc1)[C@H](O)CNC[C@@H](O)[C@H](Cc1ccccc1)NC(=O)OC1c2ccccc2CC1O (stereo partly drawn) [Compound 148, [1S-(1R*, 2S*)]-[Iminobis[2-hydroxy-1-(phenylmethyl)-3,1-propanediyl)]biscarbamic acid, 1,1-dimethylethyl 2,3-dihydro-2-hydroxy-1H-inden-1-yl ester] | – | 2000 | – | 88
CC(C)(C)OC(=O)N[C@@H](Cc1ccccc1)[C@H](O)CNC[C@H](O)[C@H](Cc1ccccc1)NC(=O)OC(C)(C)C [Compound 5, [1S-[1R*,2S*(2R*,3R*)]]-[3-[[3-[[(1,1-Dimethylethoxy)carbonyl]amino]-2-hydroxy-4-phenylbutyl]amino]-2-hydroxy-1-(phenylmethyl)propyl]carbamic acid, 1,1-dimethylethyl ester] | – | 2800 | 41 | –
CC(C)[C@H](NC(=O)OCc1nc(-c2ccccc2)c[nH]1)C(=O)N[C@@H](Cc1ccccc1)[C@H](O)CNC[C@@H](O)[C@H](Cc1ccccc1)NC(=O)OC(C)(C)C (relative stereo) [Compound 265, [1R*,2S*(2S*,3R*)]-N-[3-[[3-[[(1,1-Dimethylethoxy)carbonyl]amino]-2-hydroxy-4-phenylbutyl]amino]-2-hydroxy-1-(phenylmethyl)propyl]-N^2-[[(4-phenyl-1H-imidazol-2-yl)methoxylcarbonyl]-L-valinamide] | – | 2600 | 100 | –
CC(C)(C)OC(=O)N[C@@H](Cc1ccccc1)[C@H](O)CNC[C@@H](O)[C@H](Cc1ccc(OCC(=O)O)cc1)NC(=O)OC(C)(C)C [Compound 346, [1S-[1R*,2S*(2S*,3R*)]-[4-[4-(Carboxymethoxy)phenyl)-3-[[3-[[1,1-dimethylethoxy)carbonyl]amino]-2-hydroxy-1-(phenylmeyhyl)propyl)carbamic acid, 1, 1dimethylethyl ester] | – | > 50000 | 98 | –
